In article PMC9760738, “Pharmacokinetics, absorption, distribution, metabolism and excretion of the MEK inhibitor zapnometinib in rats” (Frontiers in Pharmacology, 2022):
Values joined by “and” are separate entries in the source; they are usually repeats but may differ in a detail not shown here. Equal values may be shown once. Read-outs that look alike come from different tables or passages of the source.

What was measured:
[1] = set-up: method as in Lorusso et al., 2005; conditions: acid metabolite after CI-1040 dosing in patients; ref Lorusso et al., 2005; cited from earlier work
[2] = Plasma protein binding assay, rat plasma; assay type: in vitro ADME; conditions: data not shown
[3] = Metabolite profiling of plasma extracts by radio-HPLC (Group 3); assay type: in vivo, rat; conditions: for concentration at 2 h / concentration at 8 h: rat, plasma, oral, 30 mg/kg, read-out: Concentration in plasma extract
Method: Metabolite profiling was performed by HPLC analysis according to the company’s SOP of plasma (Group 3), urine (Group 2) and feces (Group 2) samples. Briefly, for metabolite profiling and identification, radioactivity (cpm) was measured in HPLC eluent fractions that had previously been collected at 12 s intervals for the duration of the run (65 min) into 96-well Deep Well LumaPlates and dried in a centrifugal evaporator. A Microbeta2 scintillation counter was used to count each plate, with wells simultaneously counted for 2 min, after an initial 5 min delay. A subsample of plasma was analyzed (ca 2 ml) taken from individual animals to provide representative samples, for each sex, at 2, 8 and 168 h post dose (n = 6). Equal proportions of the total urine weight voided from Group 2 animals was pooled to provide representative samples for each sex at 0–6 h, 6–24 h and 24–48 h post dose (n = 6). Equal proportions of the total feces homogenate generated from the samples voided by the three rats (Group 2) were pooled to provide representative samples for each sex at 0–24 and 24–48 h post dose ([…]). Sample preparation was carried out due to the company’s SOPs (see Supplementary Methods). The extractability was ≥95.0% (95.0–100%) TRR (Total Radioactive Residue) for plasma and ≥88.3% (88.3%–91.3%) TRR for feces. As reference, a standard solution of zapnometinib (0.1 mg/ml in acetonitrile) was used. To assess HPLC method suitability, a column recovery was assessed on each representative sample (one per matrix). The recovery of radioactivity from the HPLC column was determined by collecting the column eluent, following an injection of a representative sample (one per matrix), and determining the radioactive content by submitting aliquots for LSC analysis. The results of these analyses were between 93.8%–105.1% column recoveries.
Next, radioactive metabolic components of zapnometinib in urine, plasma and feces extracts were isolated and profiled. The components were quantified by fraction collection/scintillation analysis, as appropriate to the radioactivity concentrations. Mass spectroscopy was used to propose identities of the major circulatory and excreted metabolites, and to correlate the metabolites detected in the different matrices. Components identified by LC-MS/MS were related to the quantified HPLC analysis by comparison of related radiochromatograms and comparison of elution order. Representative HPLC radiochromatograms of pooled feces extracts collected during 0–24 and 24–48 h post dose from male and female rats (which reveal the main metabolites) were qualitatively similar with some minor sex differences (Figure 3).

[4] = Plasma protein binding assay, human plasma; assay type: in vitro ADME; conditions: data not shown
[5] = Excretion balance of radioactivity after single oral 30 mg/kg [14C]-zapnometinib, Sprague-Dawley rats (Group 2); assay type: in vivo, rat; conditions: for Total recovery: 0-168 h; for Carcass: 168 h
Method: Oral doses of [^14C]-zapnometinib were administered as a suspension in 5% DMSO (v/v), 30% PEG 400 (v/v) and 7.5% (w/v) Captisol in water at a dose level of 30 mg/kg to male and female rats by gastric intubation at a dose volume of 4 ml/kg body weight. The selected dose level (30 mg/kg) was below the no observed adverse effect level (100 mg/kg), the formulation was selected based on data obtained in other nonclinical studies. The radioactive dose administered to each animal was quantified from the weight (excretion studies only) or volume of dosing formulation given, and its mean measured radioactivity concentration. The weight of test compound administered to each rat was determined from the radioactive dose administered and the specific activity of the test material.
Total excreta from three male and three female rats were collected after single oral doses of [^14C]-zapnometinib. Urine was collected into containers cooled in solid CO2 and feces were collected separately at ambient temperature. Expired air was trapped in 1M potassium hydroxide solution. After completion of the final excreta collection, rats were killed by cervical dislocation following sedation, and the carcasses retained for analysis.
Radioactivity was measured by liquid scintillation analysis using Wallac® 1409 automatic liquid scintillation counters. Samples were prepared according to the company’s SOP (see Supplementary Methods). Briefly, replicate weighed samples were mixed with Ultima Gold™ scintillation cocktail (PerkinElmer, United States) for the measurement of radioactivity. Radioactivity in amounts less than twice that of the background concentration in the sample under investigation was below the limit of accurate quantification (BLQ). […]
For Liquid scintillation analyses, carcasses from rats (Group 2) were solubilized by digestion at ca 55 °C overnight in a solution prepared from sodium hydroxide (80 g) and Triton X-405 (100 mL) in purified water (600 mL) and methanol (300 mL). After measurement of total sample weight (as appropriate), replicate portions of diluted dose solutions (ca 0.1 mL), plasma (ca 0.05 – 0.25 mL), urine (ca 0.05 – 0.25 mL), expired air trap solution (ca 1 mL) and cage wash (ca 1 mL) were mixed directly with Ultima Gold scintillation cocktail (5 mL; 15 mL for air traps) for measurement of radioactivity concentrations. Similarly, replicate weighed portions of digested carcass solutions (ca 1 mL plus 1 mL purified water) were mixed with Ultima Gold (10 mL) scintillation cocktail for measurement of radioactivity concentrations. Feces were weighed, then homogenized to a smooth paste after the addition of an appropriate volume (approximately 1.5 volumes) of purified water and the weight of each homogenate was recorded. Replicate weighed portions of feces (ca 0.2 g) and blood cells (ca. 0.25 g) were placed on Combustocones, which were then capped with cellulose pads and burned in oxygen using […]

[6] = from other nonclinical studies; cited from earlier work
[7] = individual males 7M, 8M, 9M, rows in order of periods 0-24, 0-48, 0-72, 0-96, 0-120, 0-144, 0-168 h

Structure (SMILES): O=C(O)c1ccc(F)c(F)c1Nc1ccc(I)cc1Cl [zapnometinib, 2-(2-Chloro-4-iodophenylamino)-3,4-difluorobenzoic acid]
- Plasma concentrations relative to those of CI-1040 [1]: approximately 30 fold
- Protein binding [2]: high protein binding
- Unbound fraction [2]: very low
- Proportion in plasma extract ([3]; 2 hours, female rats): 97.9 % sample
- Proportion in plasma extract ([3]; 2 hours, male rats): 92.0 % sample
- Proportion in plasma extract ([3]; 8 hours, female rats): 88.7 % sample
- Proportion in plasma extract ([3]; 8 hours, male rats): 92.5 % sample
- Extractability of plasma radioactivity ([3]; all measured time points): > 90 % TRR
- Plasma concentration of unchanged zapnometinib ([3]; by 168 h post dose): below the limit of quantification
- concentration at 2 h ([3]; 2 hours, female rats): 78400 ng/g
- concentration at 2 h ([3]; 2 hours, male rats): 64400 ng/g
- concentration at 8 h ([3]; 8 hours, female rats): 80700 ng/g
- concentration at 8 h ([3]; 8 hours, male rats): 72100 ng/g
- Protein binding [4]: high protein binding
- Unbound fraction [4]: very low
- Cumulative excretion, urine ([5]; 0-6 h, male, mean): 0.23 % administered dose
- Cumulative excretion, faeces ([5]; 0-24 h, male, mean): 79.34 % administered dose
- Cumulative excretion, urine ([5]; 0-24 h, male, mean): 2.20 % administered dose
- Cumulative, cage wash ([5]; 0-24 h, male, mean): 0.14 % administered dose
- Cumulative, expired air ([5]; 0-24 h, male, mean): 0.02 % administered dose
- Cumulative excretion, faeces ([5]; 0-48 h, male, mean): 89.32 % administered dose
- Cumulative excretion, urine ([5]; 0-48 h, male, mean): 2.68 % administered dose
- Cumulative, cage wash ([5]; 0-48 h, male, mean): 0.18 % administered dose
- Cumulative, expired air ([5]; 0-48 h, male, mean): 0.02 % administered dose
- Cumulative excretion, faeces ([5]; 0-72 h, male, mean): 90.12 % administered dose
- Cumulative excretion, urine ([5]; 0-72 h, male, mean): 2.77 % administered dose
- Cumulative, cage wash ([5]; 0-72 h, male, mean): 0.19 % administered dose
- Cumulative, expired air ([5]; 0-72 h, male, mean): 0.02 % administered dose
- Cumulative excretion, faeces ([5]; 0-96 h, male, mean): 90.28 % administered dose
- Cumulative excretion, urine ([5]; 0-96 h, male, mean): 2.80 % administered dose
- Cumulative, cage wash ([5]; 0-96 h, male, mean): 0.21 % administered dose
- Cumulative excretion, faeces ([5]; 0-120 h, male, mean): 90.34 % administered dose
- Cumulative excretion, urine ([5]; 0-120 h, male, mean): 2.82 % administered dose
- Cumulative, cage wash ([5]; 0-120 h, male, mean): 0.21 % administered dose
- Cumulative excretion, faeces ([5]; 0-144 h, male, mean): 90.37 % administered dose
- Cumulative excretion, urine ([5]; 0-144 h, male, mean): 2.83 % administered dose
- Cumulative, cage wash ([5]; 0-144 h, male, mean): 0.21 % administered dose
- Total recovery ([5]; female, mean): 98.26 % Administered dose
- Total recovery ([5]; male, mean): 93.72 % Administered dose
- Carcass ([5]; female, mean): 0.19 % Administered dose
- Carcass ([5]; male, mean): 0.20 % Administered dose
- Radioactivity in carcasses ([5]; 168 h post dose, both sexes): ~0.2%
- Cumulative, expired air ([5]; individual males 7M, 8M, 9M, periods 0-24, 0-48, 0-72 h): 0.02 % administered dose
- Cumulative excretion, urine ([5]; individual males 7M, 8M, 9M, rows in order of periods 0-6, 0-24, 0-48, 0-72, 0-96, 0-120, 0-144, 0-168 h): 0.23 % administered dose and 0.16 % administered dose and 0.30 % administered dose and 2.69 % administered dose and 1.99 % administered dose and 1.92 % administered dose and 3.13 % administered dose and 2.48 % administered dose and 2.43 % administered dose and 3.20 % administered dose and 2.55 % administered dose and 2.56 % administered dose and 3.22 % administered dose and 2.58 % administered dose and 2.61 % administered dose and 3.23 % administered dose and 2.59 % administered dose and 2.63 % administered dose and 3.24 % administered dose (2×) and 2.60 % administered dose (2×) and 2.64 % administered dose and 2.65 % administered dose
- Cumulative excretion, faeces [5, 7]: 81.33 % administered dose and 77.94 % administered dose and 78.75 % administered dose and 90.61 % administered dose and 88.87 % administered dose and 88.48 % administered dose and 91.30 % administered dose and 89.52 % administered dose and 89.53 % administered dose and 91.37 % administered dose and 89.65 % administered dose and 89.82 % administered dose and 91.41 % administered dose and 89.69 % administered dose and 89.92 % administered dose and 91.44 % administered dose and 89.72 % administered dose and 89.96 % administered dose and 91.46 % administered dose and 89.89 % administered dose and 89.99 % administered dose
- Cumulative, cage wash [5, 7]: 0.14 % administered dose (2×) and 0.16 % administered dose (4×) and 0.11 % administered dose and 0.22 % administered dose and 0.19 % administered dose and 0.23 % administered dose (5×) and 0.20 % administered dose and 0.15 % administered dose and 0.24 % administered dose (3×) and 0.26 % administered dose and 0.17 % administered dose
- No observed adverse effect level [6]: 100 mg/kg
